Converted amounts (≈) assume the structure as drawn. Read-outs that look alike come from different tables or passages of the source.
Experiments:
[1] = test system: K. pneumoniae ATCC 700603; test: CO-ADD MIC assay, K. pneumoniae ATCC 700603; assay type: cell-based; conditions: Klebsiella pneumoniae, ATCC700603, Table S1, multi-drug resistant
Text: (§1) The N-arytriazole and N-naphthyltriazole peptidomimetics were subjected to antimicrobial screening. […] Vancomycin, colistin, fluconazole, and tamoxifen were used as positive controls (see Table 1 for details).
(§2) Secondary screening (MRSA and Gram-negative bacteria) and cytotoxicity assay–performed by the Community for Open Antimicrobial Drug Discovery (CO-ADD). Samples were provided to CO-ADD [29] for antimicrobial screening by whole cell growth inhibition assays.
(§3) Bacterial Inhibition–MIC Assay. These were performed as described previously.

P. aeruginosa ATCC 27853 = test: CO-ADD MIC assay, P. aeruginosa ATCC 27853; assay type: cell-based; conditions: Pseudomonas aeruginosa, ATCC27853, Table S1
Text: as §1, §2, §3

S. aureus ATCC 43300 = test: CO-ADD MIC assay, S. aureus ATCC 43300 (MRSA); assay type: cell-based; conditions: Staphylococcus aureus, MRSA, read-out: MIC S. aureus ATCC 43300
Text: as §1, §2, §3

A. baumannii ATCC 19606 = test: CO-ADD MIC assay, A. baumannii ATCC 19606; assay type: cell-based; conditions: Acinetobacter baumannii, ATCC19606, Table S1
Text: as §1, §2, §3

C. difficile ATCC 700057 = test: Primary MIC assay, C. difficile ATCC 700057; assay type: cell-based, Clostridioides difficile; conditions: Clostridioides difficile, ATCC700057; Table 1; read-out: MIC C. difficile ATCC 700057
Experimental: as §1
(§4) Primary screening (Gram-positive bacteria). Primary MIC assays were performed as described by the Clinical and Laboratory Standards Institute for aerobic and anaerobic bacteria. MIC values for vancomycin were within acceptable QC ranges.

S. aureus NCTC 10442 = test: Primary MIC assay, S. aureus NCTC 10442 (MRSA); assay type: cell-based; conditions: Staphylococcus aureus, MRSA
Experimental: as §1, §4

S. aureus ATCC 29213 = test: Primary MIC assay, S. aureus ATCC 29213; assay type: cell-based; conditions: Staphylococcus aureus, ATCC29213; Table 1; read-out: MIC S. aureus ATCC 29213
Experimental: as §1, §4

human erythrocytes = test: Hemolysis assay, HC50 determination; assay type: cell-based
Experimental: Hemolysis assay (human erythrocytes)–HC50 determination. These were performed as described previously.

E. faecalis ATCC 29212 = test: Primary MIC assay, E. faecalis ATCC 29212; assay type: cell-based, Enterococcus faecalis; conditions: Enterococcus faecalis, ATCC29212; Table 1; read-out: MIC E. faecalis ATCC 29212
Experimental: as §1, §4

E. coli ATCC 25922 [2] = test: CO-ADD MIC assay, E. coli ATCC 25922; assay type: cell-based; conditions: Escherichia coli, ATCC25922, Table S1
Text: as §1, §2, §3

S. pneumoniae ATCC 49619 = test: Primary MIC assay, S. pneumoniae ATCC 49619; assay type: cell-based, Streptococcus pneumoniae; conditions: Streptococcus pneumoniae, ATCC49619; Table 1; read-out: MIC S. pneumoniae ATCC 49619
Experimental: as §1, §4

E. coli ATCC 25922 [3] = test: Primary MIC assay, E. coli ATCC 25922; assay type: cell-based; conditions: Escherichia coli, ATCC25922; Table 1; read-out: MIC E. coli ATCC 25922
C. difficile 132 (RT027) = test: Primary MIC assay, C. difficile 132 (RT027); assay type: cell-based, Clostridioides difficile; conditions: Clostridioides difficile; Table 1; read-out: MIC C. difficile 132 (RT027)
Experimental: as §1, §4

[4] = Cytotoxicity (CC50) assay by CO-ADD; assay type: cell-based, human; conditions: human, HEK293 cells (ATCC CRL-1573); Table 1; cytotoxicity on HEK293 cells, tested at ≤32 µg/mL
Text: as §1, §2
Cytotoxicity Assay. These were performed as described previously.

C. albicans ATCC 90028 = test: CO-ADD MIC assay, C. albicans ATCC 90028; assay type: cell-based; conditions: Candida albicans, ATCC90028, Table S1
Text: as §1, §2

[5] = test system: Cryptococcus neoformans var. grubii ATCC 208821; test: CO-ADD MIC assay, C. neoformans var. grubii ATCC 208821; assay type: cell-based; conditions: for MIC: Cryptococcus neoformans, ATCC208821, Table S1; for MIC C. neoformans var. grubii ATCC 208821: Table S1
Text: as §1, §2

[6] = Table 1, read-out: MIC S. aureus NCTC 10442
[7] = Table 1, lysis of human erythrocytes
[8] = Table S1, footnote says lysis of sheep erythrocytes

MIC [1] [µg/mL] | MIC (P. aeruginosa ATCC 27853) [µg/mL] | MIC (S. aureus ATCC 43300; Table S1, CO-ADD) [µg/mL] | MIC (A. baumannii ATCC 19606) [µg/mL] | MIC (C. difficile ATCC 700057) [µg/mL] | MIC (S. aureus NCTC 10442; [6]) [µg/mL] | MIC (S. aureus ATCC 29213) [µg/mL] | MIC (E. faecalis ATCC 29212) [µg/mL] | MIC (E. coli ATCC 25922 [2]) [µg/mL] | MIC (S. pneumoniae ATCC 49619) [µg/mL] | MIC (E. coli ATCC 25922 [3]) [µg/mL] | MIC (C. difficile 132 (RT027)) [µg/mL] | MIC (C. albicans ATCC 90028) [µg/mL] | MIC [5] [µg/mL] | MIC C. neoformans var. grubii ATCC 208821 [5] [µg/mL] | SMILES | HC50 (human erythrocytes; [7]) [µg/mL] | HC50 (human erythrocytes; [8]) [µg/mL] | CC50 [4] [µg/mL] | further results
> 32 | 32 (≈ 42.3 µM) | 8 (≈ 10.6 µM) | 32 (≈ 42.3 µM) | 32 (≈ 42.3 µM) | 4 (≈ 5.28 µM) | 8 (≈ 10.6 µM) | 16 (≈ 21.1 µM) | 32 (≈ 42.3 µM) | 4 (≈ 5.28 µM) | 64 (≈ 84.5 µM) | 32 (≈ 42.3 µM) | 32 (≈ 42.3 µM) | 4 to 8 (≈ 5.28 to 10.6 µM) | 8 (≈ 10.6 µM) | CC(C)CCc1cnnn1-c1c(OCC(=O)N[C@H](CCCCN)C(=O)N[C@H](CCCNC(=N)N)Cn2cc(CC3CCCCC3)nn2)ccc2ccccc12 [Compound 44] | >32 | > 32 | > 32 | 
> 32 | > 32 | 32 (≈ 43.4 µM) | > 32 | > 32 | > 32 | 32 (≈ 43.4 µM) | > 32 | > 32 | > 32 | > 32 | > 32 | > 32 | > 32 |  | CC(C)CCOc1ccccc1-n1nncc1COCC(=O)N[C@H](CCCCN)C(=O)N[C@H](CCCNC(=N)N)Cn1cc(CC2CCCCC2)nn1 [Compound 49] | 17.1 | 17.1 | > 32 | 
> 32 | > 32 | 32 | > 32 | 64 | 64 | 32 | 32 | > 32 | 16 | 128 | 32 | 16 | 16 |  | CC(C)CCc1cnnn1-c1ccccc1OCC(=O)N[C@H](CCCCN)C(=O)N[C@H](CCCNC(=N)N)Cn1cc(Cc2ccccc2)nn1.Cl.Cl [Compound 39] | >32 | > 32 | > 32 | 
> 32 | > 32 | 32 (≈ 56.7 µM) | > 32 | 128 (≈ 227 µM) | 32 (≈ 56.7 µM) | 32 (≈ 56.7 µM) | 32 (≈ 56.7 µM) | > 32 | 32 (≈ 56.7 µM) | > 128 | 128 (≈ 227 µM) | > 32 | 32 (≈ 56.7 µM) |  | CC(C)CCc1cnnn1-c1ccccc1OCC(=O)N[C@H](CCCNC(=N)N)Cn1cc(C2CCCCC2)nn1 [Compound 14] | >32 | > 32 | > 32 | 
> 32 | > 32 | 4 | 32 | 32 | 4 | 4 | 8 | 32 | 8 | 16 | 64 | 16 | 4 to 8 | 8 | CC(C)CCc1cnnn1-c1c(OCC(=O)N[C@H](CCCNC(=N)N)Cn2cc(CC3CCCCC3)nn2)ccc2ccccc12.Cl [Compound 25] | 10.6 | 10.6 | > 32 | 
> 32 | > 32 | 32 (≈ 43.8 µM) | > 32 | > 32 | > 32 | 32 (≈ 43.8 µM) | > 32 | > 32 | > 32 | > 32 | > 32 | > 32 | > 32 |  | CC(C)CCOc1ccccc1-n1nncc1COCC(=O)N[C@H](CCCCN)C(=O)N[C@H](CCCNC(=N)N)Cn1cc(Cc2ccccc2)nn1 [Compound 50] | 19.8 | 19.8 | > 32 | 
> 32 | 32 | 8 | 32 | 128 | 16 | 16 | 64 | 32 | 4 | 64 | 128 | > 32 | 4 to 8 | 8 | CC(C)CCc1cnnn1-c1c(OCC(=O)N[C@H](CCCCN)C(=O)N[C@H](CCCNC(=N)N)Cn2cc(C3CCCCC3)nn2)ccc2ccccc12.Cl.Cl [Compound 43] | >32 | > 32 | > 32 | 
> 32 | > 32 | 16 (≈ 22.8 µM) | > 32 | 128 (≈ 183 µM) | 32 (≈ 45.7 µM) | 32 (≈ 45.7 µM) | 64 (≈ 91.3 µM) | > 32 | 16 (≈ 22.8 µM) | 128 (≈ 183 µM) | 128 (≈ 183 µM) | 16 (≈ 22.8 µM) | 32 (≈ 45.7 µM) |  | CC(C)CCc1cn(-c2ccccc2OCC(=O)N[C@H](CCCCN)C(=O)N[C@H](CCCNC(=N)N)Cn2cc(Cc3ccccc3)nn2)nn1 [Compound 36] | >32 | > 32 | > 32 | 
> 32 | > 32 | 32 | > 32 | 64 | 16 | 16 | 16 | > 32 | 16 | 128 | 64 | > 32 | 32 |  | CC(C)CCc1cnnn1-c1ccccc1OCC(=O)N[C@H](CCCNC(=N)N)Cn1cc(CC2CCCCC2)nn1.Cl [Compound 15] | >32 | > 32 | > 32 | 
32 (≈ 42.3 µM) | 16 (≈ 21.1 µM) | 4 (≈ 5.28 µM) | 32 (≈ 42.3 µM) | 16 (≈ 21.1 µM) | 8 (≈ 10.6 µM) | 8 (≈ 10.6 µM) | 8 (≈ 10.6 µM) | 32 (≈ 42.3 µM) | 16 (≈ 21.1 µM) | 128 (≈ 169 µM) | 16 (≈ 21.1 µM) | 32 (≈ 42.3 µM) | 4 to 8 (≈ 5.28 to 10.6 µM) | 4 (≈ 5.28 µM) | CC(C)CCc1cn(-c2c(OCC(=O)N[C@H](CCCCN)C(=O)N[C@H](CCCNC(=N)N)Cn3cc(CC4CCCCC4)nn3)ccc3ccccc23)nn1 [Compound 41] | 32 | 32 | 16 (≈ 21.1 µM) | MIC (S. aureus ATCC 43300; Table 2): 4 µg/mL (≈ 5.28 µM); MIC (S. aureus NCTC 10442; MRSA / NCTC 10442 / NCTC 104422, Table 2, read-out: MIC S. aureus NCTC 104422): 8 µg/mL (≈ 10.6 µM); HC50 (human erythrocytes; Table 2, footnote says lysis of sheep erythrocytes): 32 µg/mL
> 32 | > 32 | 8 | > 32 | 32 | 4 | 4 | 4 | 32 | 4 | 64 | 32 | 32 | 16 |  | CC(C)CCc1cn(-c2c(OCC(=O)N[C@H](CCCNC(=N)N)Cn3cc(Cc4ccccc4)nn3)ccc3ccccc23)nn1.Cl [Compound 23] | >32 | > 32 | > 32 | 
> 32 | > 32 | 32 | > 32 | 32 | 32 | 32 | 32 | > 32 | 32 | > 128 | 32 | > 32 | 32 |  | CC(C)CCc1cnnn1-c1ccccc1OCC(=O)N[C@H](CCCNC(=N)N)Cn1cc(Cc2ccccc2)nn1.Cl [Compound 16] | >32 | > 32 | > 32 | 
